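Compound exposure: 48 hours, 5 concentrations, 96-well plates. TGI denotes the concentration required for complete inhibition of growth.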
Columns and labels:
Assay in all cases: DTP human tumour cell line panel, 48 h
SR leukemia = tested on: SR leukemia
M19-MEL melanoma = tested on: M19-MEL melanoma
RPMI-8226 leukemia = tested on: RPMI-8226 leukemia
SNB-78 CNS = tested on: SNB-78 CNS
OVCAR-4 ovarian = tested on: OVCAR-4 ovarian
UO-31 renal = tested on: UO-31 renal
LXFL 529 NSCLC = tested on: LXFL 529 NSCLC
MDA-MB-231 breast = tested on: MDA-MB-231 breast
NCI-H226 lung = tested on: NCI-H226 lung
A549 NSCLC = tested on: A549 NSCLC

| Compound | TGI (SR leukemia) [µM] | TGI (M19-MEL melanoma) [µM] | TGI (RPMI-8226 leukemia) [µM] | TGI (SNB-78 CNS) [µM] | TGI (OVCAR-4 ovarian) [µM] | TGI (UO-31 renal) [µM] | TGI (LXFL 529 NSCLC) [µM] | TGI (MDA-MB-231 breast) [µM] | TGI (NCI-H226 lung) [µM] | TGI (A549 NSCLC) [µM] |
| --- | --- | --- | --- | --- | --- | --- | --- | --- | --- | --- |
| CCCCCCCCC(=O)NCCN(CCN)C(=O)CCCCCCCC | 13.8 | 10.6 | 6.25 | 23.4 | 16.2 | 26.6 | 7.89 | 10.3 | 37.1 | 29.9 |
| COc1c(OC2OC(CO)C(O)C(O)C2O)cc2c(c1OC)-c1ccc(OC)c(=O)cc1[C@@H](NC(C)=O)CC2 (stereo partly specified) | > 100 | > 100 | > 100 | > 100 | > 100 | > 100 | > 100 | – | > 100 | > 100 |
| CC1=C(C(=O)NCc2ccccc2)C(c2ccccc2O)C(C(=O)NCc2ccccc2)=C(C)N1 | > 65.9 | 35.7 | > 100 | 95.2 | 35.4 | 30.5 | 28.7 | – | 30.8 | 44.6 |
| Cc1ccc(NC(=O)CC2C(=O)Nc3ccccc3S2(=O)=O)cc1C (stereo unspecified) | > 100 | > 100 | > 100 | > 100 | > 100 | > 100 | > 100 | – | > 100 | > 100 |
| CCOc1cc[n+](C(=C=[N-])C#N)cc1 | > 100 | > 100 | > 100 | > 100 | > 100 | > 100 | > 100 | – | > 100 | > 100 |

— PubChem BioAssay (NCI)
